The text below walks through data of PMC5863483, “Low HLA binding of diabetes-associated CD8+ T-cell epitopes is increased by post translational modifications” (BMC Immunology, 2018).

Like-named read-outs stand apart in the source and are kept apart here. *1 amine or outer side, *2 acyl side, *3 side chain or, on linkers, in order; H or OH if unused. Where a SMILES comes first, the peptide text is derived from it. Where no end group is shown, it is not given here. [ ]: non-standard residue; d: D form. Tyr(3-Cl) = N[C@@H](Cc1ccc(O)c(Cl)c1)C(=O)O; γGlu = O=C(O)[C@H](CCC(=O)[*:2])N[*:1]; βAsp = O=C(O)[C@H](CC(=O)[*:2])N[*:1]; Cya = N[C@@H](CS(=O)(=O)O)C(=O)O; Cit = NC(=O)NCCC[C@H](N)C(=O)O Some results are limits rather than exact numbers.

The target in the assay is HLA-A*02:01 (Homo sapiens, UniProt P04439, D140Y/D185E/D98H/E176V/E277Q/G131W/G231S/I119V/I121R/I166T/I218V/L300P/L318F/N151K/N90K/P208A/P217A/Q86G/Q94H/R138H/R169H/T345S). Put plainly: HLA-peptide competition binding assay, A*02:01.
Where [1] appears, read: post-translationally modified insulin peptide, competition binding assay, a dash indicates IC50 >40,000 nM, read-out: A*02:01 binding (IC50 nM) Modified.
[2] abbreviates: post-translationally modified insulin-derived peptide, radiolabeled ligand competition, purified MHC, two-day incubation, three or more independent experiments, read-out: A*02:01 binding, Modified.
Setting [3] is: read-out: A*02:01 binding (IC50 nM) Modified.
The mark [4] stands for this setting: read-out: IC50 nM, target assay A*02:01.
[5] abbreviates: unmodified (WT) insulin peptide, competition binding assay, a dash indicates IC50 >40,000 nM, read-out: A*02:01 binding (IC50 nM) WT.

Regarding `CC(C)C[C@H](NC(=O)[C@H](Cc1c[nH]cn1)NC(=O)CC[C@H](N)C(=O)O)C(=O)N[C@@H](CS)C(=O)NCC(=O)N[C@@H](CO)C(=O)N[C@@H](Cc1c[nH]cn1)C(=O)N[C@@H](CC(C)C)C(=O)N[C@H](C(=O)N[C@@H](CCC(=O)O)C(=O)O)C(C)C` [ZHLCGSHLVE] (γGlu-HLCGSHLVE-OH; N-terminus and C-terminus assumed), under setting [1], the IC50 is > 40000 nM.
With `CC(C)C[C@H](NC(=O)[C@H](C)NC(=O)[C@H](CCC(=O)O)NC(=O)[C@@H](NC(=O)[C@H](CC(C)C)NC(=O)[C@H](Cc1c[nH]cn1)NC(=O)[C@H](CO)NC(=O)CNC(=O)[C@@H](N)CS(=O)(=O)O)C(C)C)C(=O)N[C@@H](Cc1ccc(O)cc1)C(=O)O` [BGSHLVEALY] (H-[Cya]GSHLVEALY-OH), the IC50 under setting [2] came to 8040 nM.
On to `C[C@@H](O)[C@H](NC(=O)[C@H](CCCCN)NC(=O)[C@@H]1CCCN1C(=O)[C@@H](NC(=O)[C@H](Cc1ccc(O)cc1)NC(=O)[C@H](Cc1ccccc1)NC(=O)[C@@H](N)Cc1ccccc1)[C@@H](C)O)C(=O)N[C@@H](CCCNC(N)=O)C(=O)N[C@@H](CCCNC(N)=O)C(=O)O` (H-FFYTPKT[Cit][Cit]-OH; N-terminus and C-terminus assumed), for which the IC50 under setting [1] is > 40000 nM.
For the molecule EHLCGSHLV, the IC50 under setting [2] came out at 7240 nM.
Turning to `CC(C)C[C@H](NC(=O)[C@H](Cc1ccc(O)cc1)NC(=O)[C@@H](N)CC(C)C)C(=O)N[C@H](C(=O)N[C@@H](CS(=O)(=O)O)C(=O)NCC(=O)N[C@@H](CCC(=O)O)C(=O)N[C@@H](CCCNC(=N)N)C(=O)NCC(=O)N[C@@H](Cc1ccc(O)cc1)C(=O)O)C(C)C` [LYLVBGERGY] (H-LYLV[Cya]GERGY-OH), under setting [3], the IC50 turned out to be 35500 nM.
Turning to KCQEVLAWL [reference compound], under setting [4], the IC50 was > 40000 nM.
Consider NLLGRFELI [reference compound], for which the IC50 under setting [4] is 764 nM.
As to VDEHLCGSH, the IC50 under setting [1] was > 40000 nM.
As for ERGYFYTPKT, the IC50 under setting [1] is > 40000 nM.
FFYTPKTRR: the IC50 under setting [5] was > 40000 nM.
Same read-out and setting: the same measure for TPKTRREAED [TPKTRREAED]: > 40000 nM.
On to GLLQVHHSCPL [reference compound], for which the IC50 under setting [4] worked out at 5.8 nM.
The same measure, in the same setting: the same measure for VVTGVLVYL [reference compound]: 9 nM.
With `CC(C)C[C@H](NC(=O)[C@H](Cc1c[nH]cn1)NC(=O)[C@H](CCC(N)=O)NC(=O)[C@H](CC(N)=O)NC(=O)[C@@H](NC(=O)[C@@H](N)Cc1ccccc1)C(C)C)C(=O)N[C@@H](CS(=O)(=O)O)C(=O)NCC(=O)N[C@@H](CO)C(=O)O` [FVNQHLBGS] (H-FVNQHL[Cya]GS-OH; N-terminus and C-terminus assumed), under setting [1], the IC50 is > 40000 nM.
Same read-out and setting: the same measure for `C[C@H](NC(=O)[C@H](CCC(=O)O)NC(=O)[C@H](CCCNC(N)=O)NC(=O)[C@H](CCCNC(N)=O)NC(=O)[C@@H](NC(=O)[C@H](CCCCN)NC(=O)[C@@H]1CCCN1C(=O)[C@@H](N)[C@@H](C)O)[C@@H](C)O)C(=O)N[C@@H](CCC(=O)O)C(=O)N[C@@H](CC(=O)O)C(=O)O` [TPKTUUEAED] (H-TPKT[Cit][Cit]EAED-OH; N-terminus and C-terminus assumed): > 40000 nM; for LYLVCGERGY: > 40000 nM.
In the case of ALEGSLQKR, the IC50 under setting [5] was > 40000 nM.
Turning to FMTSSWWGA [reference compound], under setting [4], the IC50 turned out to be 378 nM.
For MALWMRLLPL, the IC50 amounted to 1260 nM.
LALWGPDPAA [reference compound]: under setting [4], the IC50 came to 30300 nM.
As to `CC[C@H](C)[C@H](NC(=O)CNC(=O)[C@H](CCCNC(N)=O)NC(=O)[C@H](CCCCN)NC(=O)[C@H](CCC(N)=O)NC(=O)[C@H](CC(C)C)NC(=O)[C@H](CO)NC(=O)CN)C(=O)N[C@H](C(=O)O)C(C)C` (H-GSLQK[Cit]GIV-OH; N-terminus and C-terminus assumed), the IC50 under setting [1] was > 40000 nM.
On to `CC(C)C[C@H](NC(=O)[C@@H](N)Cc1ccc(O)cc1)C(=O)N[C@H](C(=O)N[C@@H](CS(=O)(=O)O)C(=O)NCC(=O)N[C@@H](CCC(=O)O)C(=O)N[C@@H](CCCNC(=N)N)C(=O)NCC(=O)N[C@@H](Cc1ccc(O)cc1)C(=O)O)C(C)C` [YLVBGERGY] (H-YLV[Cya]GERGY-OH), for which the IC50 under setting [2] amounted to 3240 nM.
Take FMTSSWWRA [reference compound]: under setting [4], the IC50 was determined as 101 nM.
On the same count and under the same terms, next, LLQEYNWEL [reference compound]: 35 nM.
For KMYAFTLES [reference compound], under setting [4], the IC50 was found to be 880 nM.
As for CGERGFFYT, the IC50 under setting [5] is > 40000 nM.
Take `C[C@@H](O)[C@H](NC(=O)[C@H](CCCCN)NC(=O)[C@@H]1CCCN1C(=O)[C@@H](NC(=O)[C@H](Cc1ccc(O)cc1)NC(=O)[C@@H](N)Cc1ccccc1)[C@@H](C)O)C(=O)N[C@@H](CCCNC(N)=O)C(=O)N[C@@H](CCCNC(N)=O)C(=O)N[C@@H](CCC(=O)O)C(=O)O` (H-FYTPKT[Cit][Cit]E-OH; N-terminus and C-terminus assumed): the IC50 under setting [1] is > 40000 nM.
Regarding ELAEYLYNI [reference compound], the IC50 under setting [4] was 637 nM.
With `CC(C)C[C@H](NC(=O)[C@H](CC(=O)O)NC(=O)[C@H](CCC(=O)O)NC(=O)[C@H](C)NC(=O)[C@H](CCC(=O)O)NC(=O)[C@H](CCCNC(N)=O)NC(=O)[C@H](CCCNC(N)=O)NC(=O)[C@@H](N)[C@@H](C)O)C(=O)N[C@@H](CCC(N)=O)C(=O)N[C@H](C(=O)O)C(C)C` (H-T[Cit][Cit]EAEDLQV-OH), under setting [3], the IC50 worked out at 30200 nM.
`CC(C)C[C@H](NC(=O)[C@H](Cc1c[nH]cn1)NC(=O)CC[C@H](NC(=O)C[C@H](NC(=O)[C@@H](NC(=O)[C@@H](N)Cc1ccccc1)C(C)C)C(=O)O)C(=O)O)C(=O)N[C@@H](CS)C(=O)NCC(=O)N[C@@H](CO)C(=O)N[C@@H](Cc1c[nH]cn1)C(=O)O` [FVOZHLCGSH] (H-FV[βAsp][γGlu]HLCGSH-OH; N-terminus and C-terminus assumed): the IC50 under setting [1] was > 40000 nM.
The molecule `CC(C)C[C@H](NC(=O)[C@H](C)NC(=O)[C@H](CCC(=O)O)NC(=O)[C@@H](NC(=O)[C@H](CC(C)C)NC(=O)[C@H](Cc1c[nH]cn1)NC(=O)[C@@H](N)CO)C(C)C)C(=O)N[C@@H](Cc1ccc(O)c(Cl)c1)C(=O)N[C@@H](CC(C)C)C(=O)N[C@H](C(=O)O)C(C)C` [SHLVEALJLV] (H-SHLVEAL[Tyr(3-Cl)]LV-OH) returned a Fold increase (increase of A*02:01 binding of the modified peptide compared to the WT peptide) of 2.02 fold.
HIAGSLAVV [reference compound]: the IC50 under setting [4] stood at 216 nM.
As for LQKRGIVEQ, the IC50 under setting [5] is > 40000 nM.
For `C[C@@H](O)[C@H](NC(=O)[C@H](Cc1ccc(O)cc1)NC(=O)[C@H](Cc1ccccc1)NC(=O)[C@H](Cc1ccccc1)NC(=O)CNC(=O)[C@H](CCCNC(N)=O)NC(=O)[C@H](CCC(=O)O)NC(=O)CNC(=O)[C@@H](N)CS)C(=O)N1CCC[C@H]1C(=O)O` (H-CGE[Cit]GFFYTP-OH; N-terminus and C-terminus assumed), under setting [1], the IC50 is > 40000 nM.
Take `C[C@@H](O)[C@H](NC(=O)[C@H](CCCCN)NC(=O)[C@@H]1CCCN1C(=O)[C@@H](NC(=O)[C@H](Cc1ccc(O)cc1)NC(=O)[C@H](Cc1ccccc1)NC(=O)[C@H](Cc1ccccc1)NC(=O)CNC(=O)[C@H](CCCNC(=N)N)NC(=O)[C@@H](N)CCC(=O)O)[C@@H](C)O)C(=O)O`: the IC50 under setting [5] was > 40000 nM and the IC50 (unmodified (wild type) insulin-derived peptide, radiolabeled ligand competition, purified MHC, two-day incubation, three or more independent experiments, read-out: A*02:01 binding, WT) was > 40000 nM.
In the case of PKTRREAED [PKTRREAED], the IC50 under setting [5] is > 40000 nM.
In the case of ILMHCQTTL [reference compound], under setting [4], the IC50 came out at 478 nM.
For ALWGPDPAAA [reference compound], under setting [4], the IC50 stood at 1010 nM.
As to `CC(C)C[C@H](NC(=O)[C@H](Cc1c[nH]cn1)NC(=O)CC[C@H](N)C(=O)O)C(=O)N[C@@H](CS)C(=O)NCC(=O)N[C@@H](CO)C(=O)N[C@@H](Cc1c[nH]cn1)C(=O)N[C@@H](CC(C)C)C(=O)N[C@H](C(=O)O)C(C)C` [ZHLCGSHLV] (γGlu-HLCGSHLV-OH; N-terminus and C-terminus assumed), the IC50 under setting [1] is > 40000 nM.
Still for that read-out and setting: next, `C[C@@H](O)[C@H](NC(=O)[C@H](Cc1ccc(O)cc1)NC(=O)[C@H](Cc1ccc(O)cc1)NC(=O)[C@H](Cc1ccc(O)cc1)NC(=O)CNC(=O)[C@H](CCCNC(=N)N)NC(=O)[C@H](CCC(=O)O)NC(=O)CNC(=O)[C@@H](N)CS(=O)(=O)O)C(=O)O` [BGERGYYYT] (H-[Cya]GERGYYYT-OH; N-terminus and C-terminus assumed): > 40000 nM.
With `CC(C)C[C@H](NC(=O)[C@@H](N)[C@@H](C)O)C(=O)N[C@@H](CO)C(=O)N[C@@H](CO)C(=O)N[C@@H](CCCNC(=N)N)C(=O)N[C@H](C(=O)N[C@@H](CS)C(=O)N[C@@H](CS)C(=O)N[C@@H](CCCNC(=N)N)C(=O)N[C@H](C(=O)O)[C@@H](C)O)C(C)C` [reference compound] (H-TLSSRVCCRT-OH), the IC50 under setting [4] is 2780 nM.
Take SLTTISTTL [reference compound]: the IC50 is 237 nM.
As to KLQVFLIVL [reference compound], the IC50 under setting [4] amounted to 1370 nM.
As for `CC(C)C[C@H](NC(=O)[C@@H](N)Cc1ccc(O)cc1)C(=O)N[C@H](C(=O)N[C@@H](CS)C(=O)NCC(=O)N[C@@H](CCC(=O)O)C(=O)N[C@@H](CCCNC(N)=O)C(=O)NCC(=O)N[C@@H](Cc1ccccc1)C(=O)O)C(C)C` (H-YLVCGE[Cit]GF-OH), under setting [3], the IC50 worked out at 11400 nM.
Consider `CC(C)C[C@H](NC(=O)[C@@H](N)CCCNC(=N)N)C(=O)N[C@@H](CCCNC(=N)N)C(=O)N1CCC[C@H]1C(=O)N[C@@H](CC(C)C)C(=O)N[C@@H](CS)C(=O)N[C@@H](CS)C(=O)N[C@H](C(=O)N[C@@H](C)C(=O)O)[C@@H](C)O` [reference compound] (H-RLRPLCCTA-OH), for which the IC50 under setting [4] worked out at 8230 nM.
Regarding WMRLLPLLA, the IC50 came out at 1530 nM.
ILVLASTITI [reference compound]: the IC50 under setting [4] was 675 nM.
In the case of HLCGSHLVE, the IC50 under setting [5] is > 40000 nM.
